In brackets after ≈: the same amount, converted by molar mass. Like-named read-outs stand apart in the source and are kept apart here.
Tests used:
Staphylococcus aureus = assay: Antibacterial activity against Staphylococcus aureus; type: cell-based
PancTu I tumor = assay: PancTu I subcutaneous tumor model in nude mice; type: in vivo, nude mice (NMRI-Foxn1 nu/nu); settings: 500 mg/kg i.p. on alternating days
[1] = test system: multicellular pancreatic tumor (Panc Tul or BxPC-3) spheroids; assay: Pancreatic stem cell-like multicellular spheroid toxicity assay; type: cell-based; settings: taurolidine 500 μM, compound 2250 1000 μM, 48 hours
Text: Multicellular spheroids are composed of tumor cells growing in a 3-dimensional structure stimulating the growth, micro-environmental conditions and stem cell-like characteristics of real tumors. The multicellular tumor spheroid (MCTS) model compensates for many of the deficiencies seen in monolayer cultures. Spheroids on the scale of 200-500 μm develop chemical gradients of oxygen, nutrients, and catabolites, while having morphological and functional features similar to tumors. Therefore, assays utilizing the MCTS model allow for the assessment of drug penetration and are more predictive of in vivo success compared with monolayer cultures. MCTS assays are a tumor model system of intermediate complexity between standard monolayer and tumors in vivo.
Pancreatic tumor cells (Panc Tu-1, BxPC-3, Mia Paca-2, ASPC1) and pancreatic primary tumor cells (Bo80) were seeded in ultra-low adhesion plates in special stem cell media.
Pancreatic tumor cells (ASPC1, Mia Paca-2, Panc Tul, BxPC-3) and pancreatic primary tumor cells (Bo80) were raised in monolayer culture before seeding in ultra low adhesion plates under conditions of special stem cell media to form multicellular spheroids and passed through a cell strainer to exclude aggregates. […]

[2] = test system: tumor cell lines AsPC-1, BxPC-3 and HCT-116; assay: Inhibition of cell viability in tumor cell lines; type: cell-based; settings: read-out: Half-maximal inhibition of cell viability
Text: These effects are similar to those observed in glioma cell line LN-229. The induction of cell death was due to apoptosis and necrosis (most likely necroptosis). […] Thus, there is a redox-directed mechanism of action.

[3] = test system: pancreas tumor cells (AsPC-1, BxPC-3 and HCT-116); assay: Growth inhibition of pancreas tumor cells; type: cell-based; settings: read-out: half-maximal concentration of growth inhibition
Method: The growth of pancreas tumor cells (AsPC-1, BxPC-3 and HCT-116) was inhibited by compound 2250 with a half-maximal concentration of 300 μM, which is considerably lower than the concentration needed to elicit cytotoxicity.

[4] = test system: pancreatic primary tumors (Bo 70); assay: Xenograft model of pancreatic primary tumors Bo 70; type: in vivo; settings: Bo 70, observed for 23 days
Text: (§1) However, the differences in tumor volumes were not statistically relevant, likely due to the short duration of the study and the slow growth rate of the tumors.

[5] = test system: MRSA lines 188, 189, 193, 194 and 195; assay: Punch plate tests against MRSA; type: cell-based
[6] = Toxicity in mice during the tumor study; settings: 500 mg/kg i.p. on alternating days
Method: 1×10^7 tumor cells (PancTu-I and MiaPaca 2) were injected subcutaneously into the flank.
Tumors were grown to a size of 200 mm^3 before the treatment was started. Mice were treated on alternating days with 500 mg/kg*body weight (BW).

[7] = Water solubility and isotonicity; type: physicochemical
Text: In certain embodiments, no PVP necessary to increase the solubility. For example, a 3.2% solution 2250 is isotonic. This is an unexpected advantage over taurolidine.

Escherichia coli = assay: Antibacterial activity against Escherichia coli; type: cell-based
[8] = test system: cancers identified herein; assay: Administration to patients having cancers (Example 5); type: in vivo; settings: Example 5, present tense
Method: Each of these compounds is administered with Vitamin D3, a derivative, metabolite or analog thereof and the combination is found to increase the anti-tumor effects of the compounds.

[9] = test system: pancreatic primary tumors (Bo 73); assay: Xenograft model of pancreatic primary tumors Bo 73; type: in vivo; settings: Bo 73, observed for 15 days; differences not statistically relevant
Text: as §1

MiaPaca2 tumor = assay: MiaPaca2 subcutaneous tumor model in nude mice; type: in vivo, nude mice (NMRI-Foxn1 nu/nu); settings: 500 mg/kg i.p. on alternating days
[10] = Half-life in human fresh blood in vitro by GC; type: in vitro ADME
[11] = test system: human glioma cell line LN-229; assay: Cytotoxicity assay in LN-229 cells (crystal violet); type: cell-based; settings: for OD (absorbance at 540 nm; high values = high cell viability): 24 h; for EC50: Homo sapiens, LN-229, 24 h
Method: Cell lines: The human glioma cell line LN-229 was used as described previously (Rodak et al. 2005) as well as the human colon adenocarcinoma cell line SW480.
Cytotoxicity assay: Dissociated LN-229 cells were seeded into 96-well plates at a density of 10^4 cells per well in 100 μl of culture medium. […] Triplicate cultures were prepared for each sample. After 24 h of incubation at […], the remaining adherent viable cells were stained using crystal violet as described (Rodack et al. 2005). Cell viability was determined by measuring the absorbancy at 540 nm. The results are expressed as killing rate given by the difference between 100% of cells and percentage of cells surviving. EC50 values correspond to the concentration inducing 50% cell death.

[12] = test system: cancer stem cells (CSC) derived from four glioblastoma patients; assay: Cytotoxicity in cancer stem cells from glioblastoma patients; type: cell-based, human
Method: Tissue samples from high grade gliomas WHO grade IV from newly diagnosed patients (medium age of 54±10 years) were minced mechanically, digested enzymatically and the dissociated cells were filtered. The isolated tumor cells were cultured as bulk cells. Cancer Stem Cells (CSCs) were isolated by the formation of neurospheres under neurosphere conditions (using neurobasal medium) from the murine SMA 560 glioma cell line or from freshly isolated human glioblastoma cells.
The number of remaining adherent cells were stained (crystal violet or Alamar Blue) and quantified by absorbance measurements (540 nm). Cell survival was expressed as the percentage of cells surviving relative to the number of cells surviving in untreated control cultures. The results are given as % killing rate or EC50 as the dose required for half-maximal cytotoxicity. Results
CSCs were isolated from glioblastoma tissue resected from four patients. […].

tumor stem cells = assay: Killing of tumor stem cells in tissue culture in vitro; type: cell-based
[13] = test system: murine SMA560 glioma cancer stem cells (CSC); settings: mouse SMA 560 CSCs vs bulk cells
Text: The mouse SMA560 glioma cell line was used to provide tumor bulk cells and CSCs. […] Mouse CSCs were generated from the SMA560 glioma cell line and cultured for 7 days.

[14] = test system: human glioblastoma bulk cells; settings: Rodak et al., J. Neurosurg., 102, 1055-68, 2005; cited from earlier work
[15] = Portnow et al., Clin Cancer Res 15, 7092-7098, 2009; cited from earlier work

SMILES: O=S1(=O)CCOCN1 [compound 2250, Tetrahydro1,4,5-oxathiazin-4-dioxide]
- antibacterial activity relative to Taurultam (Staphylococcus aureus; Staph. aureus): about double as high as Taurultam
- antibacterial activity (Staphylococcus aureus; Staphylococcus aureus): very high level of antibacterial activity
- decrease of PancTu I tumor volume compared to control (PancTu I tumor): about 2 fold
- effect on pancreatic stem cell like multicellular spheroid cultures [1]: antineoplastic effect
- IC50 [2]: 750 to 1000 µM
- IC50 [3]: 300 µM
- tumor volume compared to control [4]: significantly reduce tumor volume compared to control
- activity in punch plate tests [5]: highly active
- toxic effect on the mice during the study [6]: no toxic effect
- solubility in water [7]: very soluble in water
- concentration of isotonic solution ([7]; no PVP): 3.2%
- antibacterial activity (Escherichia coli): very high level of antibacterial activity
- effectiveness in treating cancers in patients [8]: effective in treating such cancers
- safety for use in patients [8]: safe for use in patients
- relative tumor volume compared to control [9]: further reduced relative tumor volume compared to control
- decrease of MiaPaca2 tumor volume compared to control (MiaPaca2 tumor): over 3 fold
- concentration in human fresh blood ([10]; After 1 hour, 37° C.): 50.6 ppm
- concentration in human fresh blood ([10]; After 2 hours, 37° C.): 47.6 ppm
- concentration in human fresh blood ([10]; After 20 hours, 37° C.): 38.6-39.0 ppm
- concentration in human fresh blood ([10]; Baseline Value, 37° C.): 49.0 ppm
- half-life at 49 ppm ([10]; human fresh blood, 37° C., in vitro): > 1440 min
- OD (absorbance at 540 nm; high values = high cell viability) ([11]; 4 μg/ml): 1.477
- OD (absorbance at 540 nm; high values = high cell viability) ([11]; 8 μg/ml): 1.527
- OD (absorbance at 540 nm; high values = high cell viability) ([11]; 15.5 μg/ml): 1.482
- OD (absorbance at 540 nm; high values = high cell viability) ([11]; 31 μg/ml): 1.482
- OD (absorbance at 540 nm; high values = high cell viability) ([11]; 62.5 μg/ml): 0.372
- OD (absorbance at 540 nm; high values = high cell viability) ([11]; 250 μg/ml): 0.120
- OD (absorbance at 540 nm; high values = high cell viability) ([11]; 500 μg/ml): 0.141
- OD (absorbance at 540 nm; high values = high cell viability) ([11]; 1000 μg/ml): 0.189
- EC50 ([11]; read-out: EC50 (concentration inducing 50% cell death), LN-229 cells, 24 h incubation): 45 µg/mL (≈ 328 µM)
- EC50 ([11]; read-out: half-maximal concentration of inducing cell death EC50): 50 µg/mL (≈ 365 µM)

SMILES: O=S1(=O)CCN(CN2CCS(=O)(=O)NC2)CN1 [taurolidine]
- decrease of PancTu I tumor volume compared to control (PancTu I tumor): about 3 fold
- effect on pancreatic stem cell like multicellular spheroid cultures [1]: antineoplastic effect
- EC50 ([12]; Homo sapiens, 24 h, read-out: Cytotoxicity EC50 (μg/ml) 24 h, CSC GBM #4, 24 h): 12.5 µg/mL
- EC50 ([12]; Homo sapiens, 24 h, read-out: Cytotoxicity EC50 (μg/ml) 24 h, CSC GBM #5, 24 h): 14 µg/mL
- EC50 ([12]; Homo sapiens, 24 h, read-out: Cytotoxicity EC50, Mean ± SD, mean of CSCs from four glioblastoma patients, 24 h): 13 ± 2 µg/mL
- EC50 ([12]; Homo sapiens, GBM3, 24 h, read-out: Cytotoxicity EC50 (μg/ml) 24 h, CSC GBM #3, 24 h): 15 µg/mL
- EC50 ([12]; Homo sapiens, GBM6, 24 h, read-out: Cytotoxicity EC50 (μg/ml) 24 h, CSC GBM #6, 24 h): 10 µg/mL
- concentration effective at killing tumor stem cells (tumor stem cells): 0.01 µg/mL
- tumor volume compared to control [4]: significantly reduce tumor volume compared to control
- sensitivity of CSCs versus corresponding glioma bulk cells, based on EC50 [13]: about 3 fold
- EC50 [14]: ~50 µg/mL (≈ 176 µM)
- toxic effect on the mice during the study [6]: no toxic effect
- relative tumor volume compared to control [9]: slightly reduced relative tumor volume compared to control
- decrease of MiaPaca2 tumor volume compared to control (MiaPaca2 tumor): about 2 fold
- half-life ([10]; same test, human blood): ~30 min
- OD (absorbance at 540 nm; high values = high cell viability) ([11]; 4 μg/ml): 1.530
- OD (absorbance at 540 nm; high values = high cell viability) ([11]; 8 μg/ml): 1.478
- OD (absorbance at 540 nm; high values = high cell viability) ([11]; 15.5 μg/ml): 1.434
- OD (absorbance at 540 nm; high values = high cell viability) ([11]; 31 μg/ml): 1.132
- OD (absorbance at 540 nm; high values = high cell viability) ([11]; 62.5 μg/ml): 0.317
- OD (absorbance at 540 nm; high values = high cell viability) ([11]; 250 μg/ml): 0.165
- OD (absorbance at 540 nm; high values = high cell viability) ([11]; 500 μg/ml): 0.098
- OD (absorbance at 540 nm; high values = high cell viability) ([11]; 1000 μg/ml): 0.109
- EC50 ([11]; LN-229 cells, 24 h incubation, read-out: EC50 (concentration inducing 50% cell death)): 45 µg/mL (≈ 158 µM)
- EC50 (concentration inducing 50% cell death) ([11]; LN-229 cells, 24 h incubation): 50 µg/mL (≈ 176 µM)

SMILES: Cn1nnc2c(C(N)=O)ncn2c1=O [temozolamide]
- peak plasma levels measured in patients [15]: 13.7 µg/mL
- Cytotoxicity EC50 (μg/ml) 24 h ([12]; CSC GBM #3, 24 h): 84.4 µg/mL
- EC50 ([12]; CSC GBM #3, 24 h, read-out: Cytotoxicity EC50 24 h): 435 µM
- Cytotoxicity EC50 (μg/ml) 24 h ([12]; CSC GBM #4, 24 h): 97 µg/mL
- EC50 ([12]; CSC GBM #4, 24 h, read-out: Cytotoxicity EC50 24 h): 500 µM
- Cytotoxicity EC50 (μg/ml) 24 h ([12]; CSC GBM #5, 24 h): 48.5 µg/mL
- EC50 ([12]; CSC GBM #5, 24 h, read-out: Cytotoxicity EC50 24 h): 250 µM
- Cytotoxicity EC50 (μg/ml) 24 h ([12]; CSC GBM #6, 24 h): 44 µg/mL
- EC50 ([12]; CSC GBM #6, 24 h, read-out: Cytotoxicity EC50 24 h): 230 µM
- Cytotoxicity EC50, Mean ± SD ([12]; mean of CSCs from four glioblastoma patients, 24 h): 68.5 ± 26 µg/mL
